# Experimental data published in patent US6630612B2, “5-HT3 receptor assay using transgenic mammal” (University of New Mexico, priority 1997, dated 2003).
# “And” between values parts separate entries of the source, which are not always exact repeats. Equal entries are not always repeated.
# What was measured:
# 5-HT3 receptor [1] = biological target: T1, 5-HT3 receptor (Mus musculus, UniProt P23979); test: Homogenate saturation binding with 3H-GR65630 in cortical membranes of transgenic and B6SJL/F1 control mice
# T1 construct: cortices and cerebelli were removed and homogenized by hand in ice cold Hepes buffer; from tissue; host or cells: Washed membranes from cortex, cerebellum, liver, lung, heart, spleen, kidney, small intestine, testis and skeletal muscle of transgenic and B6SJL/F1 control mice
# T1 sequence (P23979 24-489): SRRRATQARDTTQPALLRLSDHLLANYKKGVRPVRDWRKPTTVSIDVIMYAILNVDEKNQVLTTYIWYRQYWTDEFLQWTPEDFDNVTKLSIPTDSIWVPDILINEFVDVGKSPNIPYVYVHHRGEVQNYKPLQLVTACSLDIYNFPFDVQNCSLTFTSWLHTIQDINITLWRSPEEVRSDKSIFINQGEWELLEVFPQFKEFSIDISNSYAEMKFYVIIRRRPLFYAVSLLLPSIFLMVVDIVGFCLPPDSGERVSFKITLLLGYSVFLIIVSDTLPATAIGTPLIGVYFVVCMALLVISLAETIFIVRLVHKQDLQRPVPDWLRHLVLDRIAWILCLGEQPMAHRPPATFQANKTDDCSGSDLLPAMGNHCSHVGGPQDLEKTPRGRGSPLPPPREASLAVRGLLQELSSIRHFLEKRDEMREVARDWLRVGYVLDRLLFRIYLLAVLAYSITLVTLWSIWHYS
# Protocol: (§1) For homogenate binding studies, cortices and cerebelli were removed and homogenized by hand in ice cold Hepes buffer (50 mM, pH 7.5) and centrifuged at 500 g for 5 minutes at 4° C. Liver, lung, heart, spleen, kidney, small intestines, testes, and skeletal muscle (from hind limb) were homogenized with an Omni tissue chopper. Membranes were pelleted by centrifugation at 20,000 g for 20 minutes at 4° C. and the pellets washed twice before suspension to 3 mg/ml in a buffer containing 145 mM NaCl, 5 mM KCl, 1, mM MgCl2, 1 mM CaCl2, 10 mM glucose, and 10 mM TRIS, pH 7.5. Saturation curves were carried out with 0.0125-25 nM ^3H-GR65630 at 37° C. for 30 minutes with 300 μg total protein. Incubation was terminated by dilution with ×10 volume (5 ml) of ice-cold buffer followed by rapid filtration onto Whatman GF/B filters. Filters were washed twice with 5 ml ice-cold buffer and counted by scintillation counting in EcoLite (ICN) scintillation cocktail. Non-specific binding (NSB) was determined with 0.125-256 μM tropisetron. Displacement binding was carried out the same as saturation binding except with 1 nM ^3H-GR65630 and NSB defined with 10 μM tropisetron. Protein concentrations were determined by Folin phenol reagent (Lowry et al., J. Biol. Chem. 193: 256-275, 1951).
# 5-HT3 receptor [2] = test: as above; parameters: species or system mouse; conditions: cortical membranes, B6SJL/F1 control mice
# Protocol: as §1
# 5-HT3 receptor [3] = biological target: T1, 5-HT3 receptor; test: Specific binding with 3H-GR65630 in membranes from various tissues of transgenic and B6SJL/F1 control mice; conditions: Cortex membranes, transgenic mice
# Protocol: as §1
# 5-HT3 receptor [4] = test: as above; parameters: species or system mouse
# Protocol: as §1
# [5] = cortical membranes, 5-HT3 transgenic mice
structure (smiles),measurement,setting,value
Cc1[nH]cnc1CCC(=O)c1cn(C)c2ccccc12 [^3H-GR65630],Bmax,5-HT3 receptor [1]; [5],2155 fmol/mg protein and 2155±129 fmol/mg protein
same,Hill no. (Hill plot slope),5-HT3 receptor [1]; [5],1.0
same,Kd,5-HT3 receptor [1]; [5],1.7 nM
same,Bmax,5-HT3 receptor [1]; transgenic mice membranes,2.5 pmol/mg protein
same,Bmax,5-HT3 receptor [2],21 fmol/mg protein and 21±10 fmol/mg protein
same,Kd,"5-HT3 receptor [2]; n=3 (FIG. 2 legend, unit inferred)",1.6 ± 2.3 nM
same,Specific binding (means ± SEM),5-HT3 receptor [3],969.6 ± 190.5 fmol/mg protein
same,Specific binding (means ± SEM),"5-HT3 receptor [4]; Cortex membranes, B6SJL/F1 control mice",7.2 ± 2.9 fmol/mg protein
same,Specific binding (means ± SEM),"5-HT3 receptor [4]; Heart membranes, B6SJL/F1 control mice",0.25 ± 5.4 fmol/mg protein
same,Specific binding (means ± SEM),"5-HT3 receptor [4]; Heart membranes, transgenic mice",3.9 ± 1.8 fmol/mg protein
same,Specific binding (means ± SEM),"5-HT3 receptor [4]; Kidney membranes, B6SJL/F1 control mice",3.9 ± 3.1 fmol/mg protein
same,Specific binding (means ± SEM),"5-HT3 receptor [4]; Kidney membranes, transgenic mice",16.9 ± 8.0 fmol/mg protein
same,Specific binding (means ± SEM),"5-HT3 receptor [4]; Lung membranes, transgenic mice",2.7 ± 4.1 fmol/mg protein
same,Specific binding (means ± SEM),"5-HT3 receptor [4]; Skeletal muscle membranes, B6SJL/F1 control mice",2.7 ± 0.4 fmol/mg protein
same,Specific binding (means ± SEM),"5-HT3 receptor [4]; Skeletal muscle membranes, transgenic mice",8.0 ± 2.7 fmol/mg protein
same,Specific binding (means ± SEM),"5-HT3 receptor [4]; Small intestines membranes, B6SJL/F1 control mice",26.6 ± 11.0 fmol/mg protein
same,Specific binding (means ± SEM),"5-HT3 receptor [4]; Small intestines membranes, transgenic mice",26.0 ± 7.7 fmol/mg protein
same,Specific binding (means ± SEM),"5-HT3 receptor [4]; Spleen membranes, B6SJL/F1 control mice",1.7 ± 3.9 fmol/mg protein
same,Specific binding (means ± SEM),"5-HT3 receptor [4]; Spleen membranes, transgenic mice",8.2 ± 7.2 fmol/mg protein
